Consider 1 substance from US20260028404A1 (UNIVERSITY OF KANSAS, priority 2022, published 2026).

In data set [1] the test system is differentially expressed genes. In words: CT26 tumor RNA sequencing. The data set is classed as in vivo, BALB/c mice. The conditions noted are these: intratumoral GA treatment. Here is the method: RNA isolation: RNA was isolated from the tumor as previously described. 22.83Briefly, tumor pieces were stored in RNAlater solution at room temperature for at least one day and then at 4° C. until RNA isolation. Tumor pieces were removed from RNAlater solution and homogenized in 10 mL TRIzol reagent (38% phenol, 0.8 M guanidine thiocyanate, 0.4 M ammonium thiocyanate, 0.1 M sodium acetate, 5% glycerol). Homogenate was divided into 1 mL, 100 μl BCP (Molecular Research Center #BP 151, Cincinnati, OH) was added, shaken vigorously 15 seconds and centrifuged 12,000×g, 10 minutes, 4° C. […] RNA was quantified by Qubit™ using the RNA High Sensitivity Assay Kit (Invitrogen™ #Q32852, Thermo Fisher Scientific Corporation, Eugene, OR) and RNA quality was analyzed using the Agilent 2200 TapeStation (Waldbronn, Germany).
RNA sequencing: The mRNA library preparation was performed with the NEBNext® Stranded mRNA library kit (New England Biolabs, Inc. #E7760, Ipswich, MA), tagged with a unique dual index sequence, and qPCR quantification of the library pool was performed before sequencing. Sequencing was performed on an Illumina NextSeq2000 P3 with single read 75 bp read lengths (KU Genome Sequencing Core). The reads were aligned with Mus musculus UCSC mm9 reference genome using RNA-Seq Alignment workflow (2.0.2, Illumina, San Diego, CA). […]

Another data set concerns EO771 tumors. In words: EO771 triple negative breast cancer model, GA dose escalation with anti-PD1. The conditions noted are these: mouse, in vivo. Also noted: species or system C57BL/6 mice. Here is the method: GA was evaluated for its intratumoral efficacy and dose dependency in tumors alone and in combination with systemic anti-PD1 in the murine Triple negative breast cancer model EO771. EO771 cells were implanted to C57BL/6 mice on Day 0. In this study, two doses of intraperitoneal anti-PD1 (100 μg or 250 μg) and three doses of intratumoral GA (300 μg, 1 mg, 2 mg) were evaluated. Primary tumors were measured by caliper measurement. Tumor volumes were calculated according to the formula, tumor volume (mm^3)=0.52×(width)^2 ×length, where length is the longer of two perpendicular dimensions.

Data set [2] relates to 28 immune related proteins. In words: GeoMx digital spatial profiling, biopsy vs resected treated tumor. The data set is classed as in vivo, human. Here is the method: GeoMx DSP analysis: Digital spatial profiling of pre-and post-treatment formalin-fixed, paraffin embedded (FFPE) tumor tissue was performed using the GeoMx DSP platform (NanoString Technologies) to measure levels of 28 protein markers associated with immune oncology. Specifically, the immune cell profiling core protein module and IO drug target protein module were used for this analysis following manufacturer's protocol for staining, hybridization, collection, detection (nCounter based-counting), and data normalization. Briefly, this entailed an initial pathologist review of hematoxylin and eosin-stained sections by a pathologist at KUMC to verify presence of tumor cells within the FFPE block. Next, a 5 μm-think unstained FFPE slide was subjected to a cocktail of primary antibodies conjugated with unique DNA-oligonucleotide moieties attached with a light sensitive photocleavable linker. Within this cocktail were also anti-pan-cytokeratin (included with GeoMx assay and used for the basal cell carcinoma and squamous cell carcinoma samples) or anti-MART-1 (Novus Biologicals, catalog #NBP2-46603AF647 used for targeting epithelium in melanoma samples), CD45 (for targeting immune cells) and Syto-13 (used as a nuclear stain). These fluorescently labeled antibodies were used for imaging and identifying the regions of interest (ROIs) followed by segmentation into tumor cells and immune cells for independent collection from each ROI into individual wells of a 96-well plate followed by digital quantification using the NanoString nCounter platform. The GeoMx DSP Analysis Suite version 2.4 was used to perform data QC, normalization, and statistical analysis following guidance by NanoString field scientists. For analysis of similar cell populations (i.e., expression levels only in epithelial cells or only in immune cells), the geometric mean of housekeeping proteins GAPDH, Histone H3, and S6 was used for normalization. When different cell populations were being analyzed (i.e., expression levels in epithelial versus immune cells), the geometric mean of the signal-to-noise ratio of negative control mouse and rabbit isotype IgG controls was used for background correction prior.
The GeoMx Digital Spatial Profiling (DSP) platform (NanoString) was used to profile 28 immune related proteins. This platform allows users to perform nondestructive interrogation of formalin-fixed paraffin embedded (FFPE) tissue (among other tissue types) for multiplexed spatial profiling of immunooncology-related proteins to assess tumor cells and their microenvironment. The GeoMx platform uses a cocktail of antibodies conjugated to photocleavable DNA-barcoded oligos to provide high multiplex capacity and the use of guided ultraviolet light exposure (by way of adjustable 1 million micromirrors) provides a high degree of flexibility in selection of regions of interest for study. DSP technology and the GeoMx platform have been extensively reviewed.
Using the GeoMx DSP platform, we performed in situ digital spatial profiling of tissue specimens collected from the COPAX trial patients before and after treatment to measure levels of 28 proteins (Immune cell profiling panel, and the IO drug target panel). After a pathologist review of H&E-stained tissue specimens to assess presence of tumor cells, GeoMx DSP analysis was performed on a serial unstained slide for each sample. Regions of interest (ROIs) which encompassed both tumor and immune cells were selected either by free-hand drawing using the polygon tool or using a standard circle. The ROIs were further segmented into tumor cells and immune cells based on the staining pattern of morphology markers (pan-cytokeratin and CD45 for the carcinomas and MARTI and CD45 for the melanomas). Following segmentation, the DNA bar codes corresponding to each target in the antibody cocktail were collected by the instrument. […]

For data set [3] the following is noted: mouse, in vivo; cited from earlier work.
The next data set relates to AT84 model. The conditions noted are these: low-dose GA (300 μg) alone, previous study; cited from earlier work.

“Also recorded” adds a separate entry of the source.

As to Glatiramer acetate [GA], in data set [1], the “gene expression in the tumors” value is reported as “little discernable effect on gene expression”. In the data set on EO771 tumors, the “systemic cytokines associated with cytokine release syndrome” value is “does not induce systemic cytokines typically associated with cytokine release syndrome”. For the same substance, in data set [2] (Table B patients), the “patients with CD56 upregulated” value amounted to 2 patients. Besides, in data set [2] (Table B patients), the “patients with PD-L1 upregulated” value worked out at 3 patients. In addition, the “Gene expression (upregulated post-treatment)” value was “CD56, CD11c,” in data set [2] (patient BCCa-Left Nasal Ala, 2 Copaxone injections); “VISTA, GITR” in data set [2] (patient BCCa-Right Post. Neck, 2 Copaxone injections); “CD45, CD3,; also recorded: OX401, GITR,” in data set [2] (patient SCCa-Right Cheek, 1 Copaxone injection). In addition, the “immune marker expression after treatment (GeoMx, overall)” value in data set [2] (patients, biopsy vs resected treated tumor, listed as Copaxone®) is “immunostimulatory effect at the intratumoral injection site; also recorded: Several patients exhibited upregulated expression of genes that encode targets for checkpoint inhibitor therapy; also recorded: upregulated markers of stimulatory immune activity; also recorded: Immune markers including hallmarks of T cell recruitment and activation were upregulated in tumors”. Besides, in data set [3], the “retention of co-delivered immunostimulants at injection site” value is “retaining other HIT-IT such as CpG and PolyI: C at the intratumoral site of injection”. Further, the “tumor growth / tumor size” value in the data set with AT84 model is reported as “significantly increased tumor growth; also recorded: increases tumor size”.
